Data published in PMC5054527, “Mechanism of high affinity inhibition of the human urate transporter URAT1” (Scientific Reports, 2016).
Changes are numbered by the printed parent chain. Read-outs that look alike come from different tables or passages of the source.

Legend:
Experiment in all cases: URAT1 uric acid transport activity assay
[1] = biological target: T1, r-L18V rURAT1 point mutant (Rattus norvegicus, UniProt Q3ZAV1, L18V); format: cell-based
T1 sequence (Q3ZAV1 1-553 L18V): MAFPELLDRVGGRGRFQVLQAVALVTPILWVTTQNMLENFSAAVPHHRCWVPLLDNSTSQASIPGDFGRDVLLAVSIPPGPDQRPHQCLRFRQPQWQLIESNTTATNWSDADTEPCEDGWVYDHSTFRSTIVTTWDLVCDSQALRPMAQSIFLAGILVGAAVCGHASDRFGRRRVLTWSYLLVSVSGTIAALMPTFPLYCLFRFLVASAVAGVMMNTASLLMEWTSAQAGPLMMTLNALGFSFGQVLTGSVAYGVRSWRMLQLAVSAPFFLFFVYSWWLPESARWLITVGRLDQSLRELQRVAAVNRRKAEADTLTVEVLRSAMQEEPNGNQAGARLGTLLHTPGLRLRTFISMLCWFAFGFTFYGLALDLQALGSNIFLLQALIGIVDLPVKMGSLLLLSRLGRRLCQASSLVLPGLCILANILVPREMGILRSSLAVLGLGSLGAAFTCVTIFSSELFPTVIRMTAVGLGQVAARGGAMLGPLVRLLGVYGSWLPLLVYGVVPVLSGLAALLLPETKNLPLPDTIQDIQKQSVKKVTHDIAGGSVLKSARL
Excerpt: (§1) hURAT1 (GenBank BC053348.1) and rURAT1 (NCBI NM_001034943.1) genes were purchased from Origene Technologies, Inc. and subcloned into pCMV6/neo using NotI, creating pCMV6/neo-hURAT1 and pCMV6/neo-rURAT1. Mutants were produced by polymerase chain reaction (PCR) or site-directed mutagenesis using the QuikChange Lightning Multi Site-Directed Mutagenesis Kit (Agilent Technologies). […] Detailed methods are provided in Supplementary Methods, and primers are listed in Supplementary Table 1. […] Residues in rURAT1 and hOAT1 that correspond to the residues in hURAT1 were identified from aligned protein sequences (Supplementary Fig. 1)[50].
(§2) DNA (10 μg) was mixed with 30 μl of DreamFect Gold (Boca Scientific) in 2 ml OptiMem (Life Technologies). After 20 minutes, 18 ml of media containing 2 × 10^7 cells in suspension was added and mixed, and 200 μl per well were plated onto white clear-bottomed poly-D-lysine coated 96-well plates (BD Biosciences). The cells were assayed the following day.
(§3) Compounds were serially diluted into assay buffer and added to the cells for 5 minutes prior to addition of radiolabelled uric acid substrate. URAT1-expressing cells were incubated with 100 μM ^14C-uric acid for 10 minutes. […] Each treatment was measured in triplicate.
(§4) Unlabelled uric acid was prepared at a 20 mM stock just prior to use in a solution containing 20 mM dibasic potassium phosphate and 20 mM potassium hydroxide.
(§5) Nonlinear regression analyses using GraphPad Prism software were used to calculate the potency of URAT1 inhibitors (IC50 values) from log (inhibitor) versus response - variable slope (four parameters) equations. Statistical significance was assessed using Student’s unpaired t-tests.

r-h TM7 URAT1 chimera = biological target: T2, r-h TM7 URAT1 chimera (Rattus norvegicus, UniProt Q3ZAV1, F351C/M354T/Y365F); format: cell-based, human/rat
T2 construct: expressed in transfected cells; host or cells: HEK-293T
T2 sequence (Q3ZAV1 1-553 F351C/M354T/Y365F): T1 sequence (Q3ZAV1 1-553 L18V) with V18L, F351C, M354T, Y365F
Excerpt: as §1, §2, §3, §4, §5

r-h TM1-C URAT1 chimera = biological target: T3, r-h TM1-C URAT1 chimera (Rattus norvegicus, UniProt Q3ZAV1, L29M/N35S/P27S/T32C/V31L); format: cell-based, human/rat
T3 sequence (Q3ZAV1 1-553 P27S/L29M/V31L/T32C/N35S): T1 sequence (Q3ZAV1 1-553 L18V) with V18L, P27S, L29M, V31L, T32C, N35S
Excerpt: as §1, §2, §3, §4, §5

Q: Which results are given for `O=C1C(CC[S+]([O-])c2ccccc2)C(=O)N(c2ccccc2)N1c1ccccc1` (stereo not drawn) [sulfinpyrazone]?
A: IC50 ([1]; r-L18V, HEPES pH 7.3, 100 μM 14C-uric acid, read-out: IC50 (uric acid transport)): 971 ± 89 µM; IC50 (r-h TM7 URAT1 chimera; r-h TM7, HEPES pH 7.3, 100 μM 14C-uric acid, read-out: IC50 (uric acid transport)): 243 ± 22 µM; IC50 (r-h TM1-C URAT1 chimera; r-h TM1-C, HEPES pH 7.3, 100 μM 14C-uric acid, read-out: IC50 (uric acid transport)): 25 ± 6.7 µM

Q: With `O=C(O)CSc1nnc(Br)n1-c1ccc(C2CC2)c2ccccc12` [lesinurad, 2-((5-bromo-4-(4-cyclopropylnaphthalen-1-yl)-4H-1,2,4-triazol-3-yl)thio)acetic acid] as the compound, how does the IC50 ([1]; r-L18V, MES pH 5.5, 100 μM 14C-uric acid, read-out: IC50 (uric acid transport)) read?
A: 78 ± 6.6 µM

Q: And the IC50 (r-h TM7 URAT1 chimera; r-h TM7, MES pH 5.5, 100 μM 14C-uric acid, read-out: IC50 (uric acid transport))?
A: 6.9 ± 0.99 µM

Q: And the IC50 (r-h TM1-C URAT1 chimera; r-h TM1-C, MES pH 5.5, 100 μM 14C-uric acid, read-out: IC50 (uric acid transport))?
A: 17 ± 2 µM

Q: Which results are given for `CCc1oc2ccccc2c1C(=O)c1cc(Br)c(O)c(Br)c1` [benzbromarone]?
A: IC50 [1]: 24 ± 3.1 µM; IC50 (r-h TM7 URAT1 chimera): 5.7 ± 0.25 µM; IC50 (r-h TM1-C URAT1 chimera): 12 ± 0.78 µM
